Common to all, as to assay: NCI tumour cell line growth inhibition, 48 h
Assay [1] deals with SNB-78 CNS.
Assay [2] concerns CCRF-CEM leukemia.
Assay [3] relates to M19-MEL melanoma.
The test system of assay [4] is DMS 114 small cell lung.
Assay [5] relates to CAKI-1 renal.
Assay [6] concerns SR leukemia.
Assay [7] concerns SNB-75 CNS.
Assay [8] has as its system RPMI-8226 leukemia.

In PubChem BioAssay (NCI) one finds TGI and GI50 data, which are given here for 30 molecules.

Each structure is given as a SMILES string. Several values for one entry are separate records, joined by “and”; a condition that tells them apart may be missing. Equal entries are not always repeated.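 Following 48 hours of exposure in 96-well plates, responses at five concentrations were used to interpolate endpoints linearly. The concentration for 50% growth inhibition is given as GI50. TGI: total growth inhibition.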 A value given as a limit tells only on which side of the number the result lay.

For `COc1c(OC2OC(CO)C(O)C(O)C2O)cc2c(c1OC)-c1ccc(OC)c(=O)cc1[C@@H](NC(C)=O)CC2` (some centres not stated), the TGI in assay [1] was greater than 100 µM; in assay [2], greater than 100 µM; in assay [3], greater than 100 µM; in assay [4], greater than 97 µM; in assay [5], greater than 100 µM; in assay [6], greater than 100 µM. Besides, the TGI was 84.4 µM in assay [7] and greater than 100 µM in assay [8].

`COC(=O)C(C(=O)C(=O)Nc1ccc(N)cc1[N+](=O)[O-])c1nc2ccc(Cl)cc2[nH]c1=O` (configuration not stated): the TGI in assay [1], in assay [2], in assay [3], in assay [4], in assay [5] and in assay [7] was greater than 100 µM throughout. In assay [8], this molecule registered a TGI greater than 100 µM.

As to `CCCCCCC(=O)CC(=O)C(=O)Nc1ccccc1C`, the TGI in assay [1], in assay [2], in assay [3], in assay [4], in assay [5] and in assay [6] was greater than 100 µM throughout. Besides, the TGI in assay [7] and in assay [8] was greater than 100 µM each time.

For `CCOc1cc[n+](C(=C=[N-])C#N)cc1`, the TGI in assay [1], in assay [2], in assay [3], in assay [4], in assay [5] and in assay [6] was greater than 100 µM throughout. Moreover, the TGI in assay [7] and in assay [8] was greater than 100 µM throughout.

For `COc1ccc([Se]c2ccc(OC)cc2)cc1`, the TGI in assay [2] is greater than 100 µM; in assay [3] it was greater than 100 µM; in assay [4], greater than 100 µM; in assay [5], greater than 100 µM; in assay [7], 96.8 µM; in assay [8], greater than 100 µM.

For the molecule `CC(=O)OC1(C#N)CC2OC1C1NC21` (configuration not stated), the TGI in assay [1], in assay [2], in assay [3], in assay [4], in assay [5] and in assay [7] was greater than 100 µM throughout. This molecule also returned a TGI in assay [8] greater than 100 µM.

Turning to `NNC(=O)N/N=C1/C(=O)N(c2ccc(Cl)c(Cl)c2)C(=O)C(=O)C1c1nc2ccccc2o1` (configuration not stated), the TGI in assay [1], in assay [2], in assay [3], in assay [4], in assay [5] and in assay [7] was greater than 100 µM each time.

For the molecule `O=C(OCc1ccccc1)c1ccccc1-c1c2ccc(=O)cc-2oc2cc(OCc3ccccc3)ccc12`, the TGI in assay [1] was greater than 100 µM; in assay [2], 36.8 µM; in assay [3] it was greater than 100 µM; in assay [5], 58.5 µM; in assay [6] it was 18.8 µM; in assay [8], 57.7 µM.

Regarding `C(=NCCN=Cc1cccc2ccccc12)c1cccc2ccccc12`, the TGI in assay [1], in assay [3], in assay [4], in assay [5], in assay [6] and in assay [7] was greater than 100 µM throughout. This molecule also gave a TGI in assay [8] greater than 100 µM.

In the case of `C#Cc1ccccc1N1C(=O)C=CC1=O`, the TGI in assay [1], in assay [2], in assay [3], in assay [4], in assay [5] and in assay [6] was greater than 100 µM in each case. Further, the TGI in assay [7] and in assay [8] was greater than 100 µM each time.

As for `Nc1ncnc2c1ncn2COC/C=C/I`, the TGI in assay [1], in assay [2], in assay [3], in assay [4], in assay [5] and in assay [6] was greater than 100 µM in each case. Moreover, the TGI in assay [7] and in assay [8] was greater than 100 µM each time.

In the case of `CN/N=C(/CC(=O)c1sc(NNC(C)=O)nc1C)C(=O)Nc1ccc(OC)cc1OC`, the TGI in assay [1], in assay [2], in assay [3], in assay [4], in assay [5] and in assay [6] was greater than 100 µM in each case. The same molecule gave a TGI in assay [8] greater than 100 µM.

Take `CC(=O)N1CCN(C=S)CC1`: the TGI in assay [1], in assay [2], in assay [3], in assay [4], in assay [5] and in assay [6] was greater than 100 µM in each case. Besides, the TGI in assay [7] and in assay [8] was greater than 100 µM each time.

With `ClCCCN1CCCCC1CCl` (configuration not stated), the TGI in assay [2], in assay [3], in assay [4], in assay [5], in assay [6] and in assay [7] was greater than 100 µM each time. Further, the TGI in assay [8] is greater than 100 µM.

Take `Cc1ccc(NC(=O)CC2C(=O)Nc3ccccc3S2(=O)=O)cc1C` (configuration not stated): the TGI in assay [1], in assay [2], in assay [3], in assay [4], in assay [5] and in assay [6] was greater than 100 µM throughout. In addition, the TGI in assay [7] and in assay [8] was greater than 100 µM each time.

In the case of `NC(C(=O)O)c1ccc(C(=O)O)cc1` (configuration not stated), the TGI in assay [1], in assay [2], in assay [3], in assay [4], in assay [5] and in assay [6] was greater than 100 µM each time. The TGI in assay [7] and in assay [8] was greater than 100 µM in each case.

In the case of `CCCCCC/C(CC(=O)CCC(=O)NCCc1ccccc1)=N\NC(=O)c1ccc2ccccc2c1O`, the TGI was greater than 100 µM in assay [1]; 47.4 µM in assay [2]; 88.4 µM in assay [3]; greater than 100 µM in assay [7]; greater than 100 µM in assay [8].

As for `Cc1c(C(=O)Nc2ccc(Cl)cc2)nc(N)nc1-c1cccc(Cl)c1`, the TGI in assay [1], in assay [2], in assay [3], in assay [4], in assay [5] and in assay [6] was greater than 100 µM in each case.

With `Cc1ccc(SSCCCCS(=O)O)cc1`, the TGI in assay [1] was greater than 100 µM; in assay [2], 62.5 µM; in assay [3] it was 64.5 µM; in assay [4], 41.9 µM; in assay [5] it was 40.9 µM; in assay [7], greater than 100 µM.

For the molecule `CCN(CC)c1ccc(N=C2C=CC(=C(C#N)C#N)c3ccccc32)c(C)c1`, the TGI in assay [1] came to 6.42 µM; in assay [2], 6.1 µM; in assay [3], 5.77 µM; in assay [5], 5.4 µM; in assay [7], 5.69 µM; in assay [8], 15.2 µM.

Consider `C=C1CC(CC(=O)C(C)CC2CC(=C)C(=O)O2)OC1=O` (configuration not stated), for which the TGI in assay [1] was 49.7 µM; in assay [2], 26.8 µM; in assay [3] it was 30.3 µM; in assay [4], 39 µM; in assay [6] it was 24.1 µM; in assay [7], greater than 100 µM.

With `CC(=O)Nc1ccccc1S(=O)c1ccccc1` (configuration not stated), the TGI in assay [1], in assay [2], in assay [3], in assay [4], in assay [5] and in assay [7] was greater than 100 µM in each case. The TGI in assay [8] is greater than 100 µM.

`O=C1OC(=O)C2C1C1C(c3ccccc3)=C(c3ccccc3)C2(O)C2C(=O)OC(=O)C12` (configuration not stated): the TGI in assay [1], in assay [2], in assay [3], in assay [4], in assay [5] and in assay [6] was greater than 100 µM in each case. For the same molecule, the TGI in assay [7] and in assay [8] was greater than 100 µM in each case.

As for `O=S1Cc2ccccc2CSS1` (configuration not stated), the TGI in assay [1] came out at 62 µM; in assay [3], 44.9 µM; in assay [4], 34.6 µM; in assay [5], 35.8 µM; in assay [6], 51.2 µM; in assay [7] it was 43.4 µM. The TGI in assay [8] came to 39.8 µM.

Take `CCc1cccc(CC)c1NC(=O)C1=CNC(C)=C(C(=O)Nc2c(CC)cccc2CC)C1c1ccc(O)c(OC)c1` (configuration not stated): the TGI in assay [1] was greater than 100 µM; in assay [2], 61 µM; in assay [3], greater than 100 µM; in assay [4], greater than 100 µM; in assay [5], greater than 100 µM; in assay [7] it was greater than 100 µM. In assay [8], this molecule gave a TGI of 45.3 µM.

Turning to `CN(C)c1ccc(/C=c2\sc3nnc(Cc4ccccc4)n3c2=O)cc1`, the GI50 in assay [1] was greater than 100 µM; in assay [2], greater than 100 µM; in assay [4] it was greater than 10 µM; in assay [5], greater than 100 µM; in assay [6] it was greater than 100 µM; in assay [7], greater than 100 µM. Moreover, the GI50 in assay [8] was greater than 100 µM. Moreover, the TGI is greater than 100 µM in assay [1]; greater than 100 µM in assay [2]; greater than 100 µM in assay [3]; > 10 µM and 33.8 µM in assay [4]; greater than 100 µM in assay [5]; greater than 100 µM in assay [6]. The TGI in assay [7] and in assay [8] was greater than 100 µM each time.

Take `N#CC1([N+](=O)[O-])C=C1c1ccccc1` (configuration not stated): the TGI is greater than 100 µM in assay [1]; 72.2 µM in assay [2]; greater than 100 µM in assay [3]; greater than 100 µM in assay [4]; greater than 100 µM in assay [5]; 70.3 µM in assay [6]. This molecule had a TGI in assay [8] of 49.5 µM.

With `CC(=O)Nc1ccc(OCC(O)CO)cc1` (configuration not stated), the TGI in assay [1], in assay [2], in assay [3], in assay [5], in assay [6] and in assay [7] was greater than 100 µM in each case. Moreover, in assay [8], the TGI came out at 43.9 µM.

With `CC1CCC2[C@@H](C)COC3O[C@]4(C)CCC1C32OO4` (some centres not stated), the TGI in assay [1], in assay [2], in assay [4], in assay [5] and in assay [7] was greater than 100 µM in each case.

For `C/C(=N\NS(=O)(=O)c1ccccc1)c1ccc[n+]([O-])n1`, the TGI in assay [1] is greater than 100 µM; in assay [2] it was 64.6 µM; in assay [3] it was greater than 100 µM; in assay [4], greater than 100 µM; in assay [5], greater than 100 µM; in assay [6], greater than 100 µM. Besides, the TGI in assay [7] and in assay [8] was greater than 100 µM each time.
